From US20060057628A1, “Method for prognosticating the progress of breast cancer and compounds useful for prevention or treatment thereof” (priority 2003, published 2006)

Legend:
[1] = target: T1, 17HSD type 1 (Homo sapiens, UniProt P14061); experiment: 17HSD type 1 inhibition in MCF-7 cells stably expressing 17HSD type 1 (HPLC detection of tritium labeled estrone conversion); assay type: cell-based; design: expressed in transfected cells; host or cells: MCF-7 cells stably expressing 17HSD type 1; settings: MCF-7 cells expressing 17HSD type 1, substrate estrone 20 nM
T1 sequence (P14061 1-328): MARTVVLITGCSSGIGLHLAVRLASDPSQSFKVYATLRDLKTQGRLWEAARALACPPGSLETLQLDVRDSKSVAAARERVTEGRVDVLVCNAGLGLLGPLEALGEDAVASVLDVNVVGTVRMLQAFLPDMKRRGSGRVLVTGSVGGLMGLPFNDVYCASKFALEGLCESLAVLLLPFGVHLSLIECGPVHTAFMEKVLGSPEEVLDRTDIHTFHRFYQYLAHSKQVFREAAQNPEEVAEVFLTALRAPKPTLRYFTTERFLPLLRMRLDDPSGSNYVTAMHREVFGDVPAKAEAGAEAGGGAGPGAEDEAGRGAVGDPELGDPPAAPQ
Text: (§1) The tested compounds (about 1000 selected different compounds) were screened in respect of 17HSD enzyme activities according to the following method:
(§2) The compounds were screened in respect of 17HSD enzyme activities in vitro on two established MCF-7 cell lines, each stably expressing one 17HSD isoenzyme, either 17HSD type 1 or 17HSD type 2, but not the other one. The interconversion of substrate by each isoenzyme and the HSD-inhibiting activity of chemical compounds in these cell lines was detected by HPLC system (Miettinen et al., Int J Cancer (1996) 68, 600-604).
(§3) Varying amounts of the test compounds were incubated in the growth medium of the 17HSD expressing cells together with tritium labeled substrate (estrone for 17HSD type 1 enzyme; 20 nM). The medium samples were removed after exact incubation time and the reaction was stopped by deepfreezing. The samples were analyzed by HPLC-coupled flow scintillation analysis. The 17HSD-inhibiting activity of the test compounds was compared to known reference compound apigenin and to a negative control.

[2] = target: T2, 17HSD type-2 enzyme (Homo sapiens, UniProt P37059); experiment: 17HSD type 2 inhibition in MCF-7 cells stably expressing 17HSD type 2 (HPLC detection); assay type: cell-based; settings: MCF-7 cells expressing 17HSD type 2; concentration not given
T2 construct: expressed in transfected cells; host or cells: MCF-7 cells stably expressing 17HSD type 2
T2 sequence (P37059 1-387): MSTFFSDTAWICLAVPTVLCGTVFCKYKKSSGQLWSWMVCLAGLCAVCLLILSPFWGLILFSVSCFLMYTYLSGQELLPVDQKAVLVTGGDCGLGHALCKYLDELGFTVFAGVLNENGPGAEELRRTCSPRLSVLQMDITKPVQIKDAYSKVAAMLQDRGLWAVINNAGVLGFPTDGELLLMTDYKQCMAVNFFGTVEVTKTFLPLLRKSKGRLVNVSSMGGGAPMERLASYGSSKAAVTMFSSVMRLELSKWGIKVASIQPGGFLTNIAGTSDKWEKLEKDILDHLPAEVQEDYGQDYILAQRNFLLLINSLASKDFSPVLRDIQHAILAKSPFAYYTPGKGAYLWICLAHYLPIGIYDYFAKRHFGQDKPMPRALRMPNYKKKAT
Text: as §1, §2, §3

inhibition of the 17HSD type 1 enzyme ([1]; concentration 1 μM) | inhibition of the 17HSD type 1 enzyme ([1]; concentration 10 μM) | inhibition of the 17HSD type-2 enzyme [2] | inhibition at 1 µM ([1]; MCF7, concentration 1 μM) | SMILES
80% | 95% | did not show any inhibition effect |  | O=CC1=C(Sc2ccccc2)c2sc3nc4n(c(=O)c3c2CC1)CCCCC4 [Compound A]
 |  | 5% | 48% | O=c1cc(-c2ccc(O)cc2)oc2cc(O)cc(O)c12 [apigenin]
